These results are taken from ChEMBL document CHEMBL5576127, “New CDDO Arylboronate Ester Derivatives with High Selectivity and Low Toxicity” (J Med Chem, 2024).

SMILES strings stand for the structures.

Data set [1] in a line: Drug release in human BGC-823 cells assessed as increase in 4-((4-hydroxybenzoyl)oxy)butyl (4aS,6aR,6bS,8aR,12aS,14aR,14bS)-11-cyano-2,2,6a,6b,9,9,12a-heptamethyl-10,14-dioxo-1,3,4,5,6,6a,6b,7,8,8a,9,10,12a,14,14a,14b-hexadecahydropicene-4a(2H)-carboxylate concentration incubated for 4 hrs in absence of H2O2 by LC-MS analysis. It is filed as ADME, cell-based. The following applies: bgc-823, 4 h.

For data set [2], the system named is BGC-823. The data set can be described thus: Antiproliferative activity against human BGC-823 cells assessed as inhibition of cell proliferation incubated for 48 hrs by MTT assay. The following applies: BGC-823, 48 h. It is filed as functional, cell-based.
Data set [3] relates to BGC-823. Kind of data set: Induction of apoptosis in human BGC-823 cells assessed as early apoptotic cells at 1.5 uM incubated for 48 hrs by Annexin V-FITC/PI staining based flow cytometric analysis ( Rvb = 1.68 %). Type of data set: functional.
Data set [4] can be described thus: Acute toxicity in ip dosed ICR mouse assessed as effect on lung by H and E staining based analysis. Type of data set: organism-based. The following applies: in vivo.
The subject of data set [5] is BGC-823. The data set can be described thus: Induction of apoptosis in human BGC-823 cells assessed as early apoptotic cells at 3 uM incubated for 48 hrs by Annexin V-FITC/PI staining based flow cytometric analysis ( Rvb = 1.68 %). Type of data set: functional.
Data set [6] can be described thus: Selectivity index, ratio of IC50 for cytotoxicity against human GES1 cells to IC50 for antiproliferative activity against human BGC-823 cells in presence of H2O2. It is filed as toxicity, cell-based. The settings on record: GES1 cells and BGC-823 cells, read-out: Ratio IC50.
Data set [7] can be described thus: Acute toxicity in ip dosed ICR mouse assessed as effect on heart by H and E staining based analysis. It is filed as organism-based. The settings on record: in vivo.
Data set [8] is described as follows: Acute toxicity in ip dosed ICR mouse assessed as animal death at 1.82 logarithm of dose. Type of data set: organism-based. The settings on record: in vivo.
Data set [9] concerns BGC-823. The data set can be described thus: Induction of ROS generation in human BGC-823 cells assessed as cells with green fluorescence at 6 uM incubated for 24 hrs by DCFH-DA staining based analysis relative to control. Type of data set: functional.

Turning to `CC1(C)CC[C@]2(C(=O)OCCCCOC(=O)c3ccc(OCc4ccc(B5OC(C)(C)C(C)(C)O5)cc4)cc3)CC[C@]3(C)[C@H](C(=O)C=C4[C@@]5(C)C=C(C#N)C(=O)C(C)(C)[C@@H]5CC[C@]43C)[C@@H]2C1`, the Drug metabolism result in data set [1] is on record as “Metabolite_Notdetected”. Besides, the IC50 in the data set on BGC-823 [2] is 2300 nM. Besides, the Activity in the data set on BGC-823 [3] is 2.08%; in data set [4], “Non-Toxic”; with BGC-823 [5], 2.13%; in data set [7] it was “Non-Toxic”; in [8] it was “Toxic”; with BGC-823 [9], 35.7%. Besides, the selectivity ratio in [6] turned out to be 4.
